From patent US20110230352A1, “TREATMENT PROCESS FOR A SUPERIOR PLANT IN ORDER TO CONTROL ITS GROWTH AND ARCHITECTURE” (INSTITUT NATIONAL DE LA RECHERCHE AGRONOMIQUE, priority 2008, published 2011)
Entries after “also recorded” stand apart in the source; their conditions may differ.

How the values were obtained:
[1] = system: mutants rms1 (line M3T-884 from wild pea WT Térèse); experiment: Comparison of GR24, molecule ABC and sorgolactone by local application onto buds at node 4; assay type: in vivo; details: mutant rms1; 100 nM and 500 nM, 10 μl per bud; nine days after the treatment; FIG. 3
Description: A second experiment is carried out on mutants rms1 (line M3T-884 from wild pea WT Térèse) in order to compare on these mutants the effect of synthetic strigolactone GR24, of a synthetic molecule ABC from GR24, without any cycle D characteristic of strigolactone, and Sorgolactone, a natural strigolactone.
The plants used are obtained in the same manner as for the plants used in the first experiment.
The solution containing synthetic strigolactone GR24 at 0 nM, 100 nM and 500 nM (4% PEG 1450, 10% ethanol) is applied with the help of a micropipette onto the buds at the node 4 (N4), at the rate of 10 μl per bud.
(§1) The buds and/or ramifications at the first two plant nodes N1 and N2 are cut at the time of the treatment.
The size of the buds at the upper nodes (node N4) is measured nine days after the treatment. The results of the bud growth are illustrated in the chart in FIG. 3.

[2] = system: mutants rms4 (line M3T-946 from wild pea WT Térèse); experiment: Local application of strigolactone onto axillary buds at node 4, bud growth; assay type: in vivo; details: mutant rms4; 100 nM, 10 μl per bud; eight days after the treatment; FIG. 2
Description: (§2) A first experiment is carried out simultaneously on mutants rms1 (line M3T-884 from wild pea WT Térèse) and rms4 (line M3T-946 from wild pea WT Térèse).
(§3) 9 seeds are used for each treatment; they are sowed in pots (3 plants per pot) in soil mixed to clay balls. The seedling is carried out under glass with a light period of 16 h light/8 h night.
(§4) The treatment is carried out 10 days after the seedling (Stage with 4 leaves).
(§5) A solution containing synthetic strigolactone GR24 dissolved in acetone at 0 nM and 100 nM (4% PEG 1450, 25% ethanol, 5^0/00 acetone) is applied with the help of a micropipette onto the buds at the node 4 (N4), at the rate of 10 μl per bud.
(§6) The buds and/or ramifications at the first two plant nodes N1 and N2 are cut for favoring the start of the buds at upper nodes.
(§7) The untreated plants correspond to the plants the buds and/or ramifications of which at nodes 1 and 2 have been cut but which have not received any treatment. The control “0 nM” corresponds to the plants treated with the same solution as for the treatment “500 nM” but without any strigolactones.

[3] = system: mutants rms1 (line M3T-884 from wild pea WT Térèse); experiment: as above; assay type: in vivo; details: mutant rms1; 100 nM, 10 μl per bud; eight days after the treatment; FIG. 2
Description: as §2, §3, §4, §5, §6, §7

[4] = system: mutants rms1 (line WL5237 from wild pea WT Parvus); experiment: Local application onto buds at node 3 of plants of different ages; assay type: in vivo; details: 1000 nM applied on two days, 9 to 13 day-old plants, buds 0.2 to 1 mm at first treatment, three and seven days after, FIG. 5A
Description: A first experiment is carried out on mutants rms1 (line WL5237 from wild pea WT Parvus) in order to compare the effect of synthetic strigolactones GR24 on the size of the treated buds at the time of the treatment.
In this experiment, 20 seeds are used for each treatment, which are sowed in pots (2 plants per pot with a diameter of 15 cm) in a soil mixed to clay balls. The seedling is carried out under glass with a natural light and with an extension of the light period of 18 h light/6 h night by means of incandescent bulbs (60 W).
On the first day of treatment, a solution containing synthetic strigolactone GR24 at 0 nM and 1000 nM (4% PEG 1450, 10% ethanol) is applied with the help of a micropipette onto the buds at the node 3 (N3), at the rate of 10 μl per bud.
On the second day of treatment, a solution containing synthetic strigolactone GR24 at 0 nM and 1000 nM (4% PEG 1450, 10% ethanol) is applied with the help of a micropipette onto the same buds, at the rate of 10 μl per bud.
as §1
The first treatment is carried out on 9, 10, 11, 12 and 13 day-old plants (the seedling were spread out over five days).
The bud size at the node N3 is measured the day of the first treatment (J0) and three and seven days afterwards. The obtained results are illustrated in the charts in FIG. 5A.

[5] = system: mutants rms1 (line WL5237 from WT Térèse); experiment: Decapitation after treatment of buds at node 3; assay type: in vivo, pea; details: 1000 nM, two applications, decapitated nine days after the treatment, measured seven days after decapitation, FIG. 7B
Description: A first experiment is carried out simultaneously on wild peas (line WT Parvus) and mutants rms1 (line WL5237 from […]). In this experiment, 18 seeds are used for each treatment, which are sowed in pots (2 plants per pot with a diameter of 15 cm) in a soil mixed with sand. The seedling is carried out under glass with natural light and with an extension of the light period of 18 h light/6 h night be means of incandescent bulbs (60 W).
In a first stage, the plants are treated by two successive applications, separated by a 24 hour interval, of a solution (2% PEG 3550, 50% ethanol) containing synthetic strigolactone GR24 at 0 nM or 1000 nM. The solution is applied with the help of a micropipette onto the buds at the node 3 (N3), at the rate of 10 μl per bud.
as §1
The size of the treated buds is measured seven days after the treatment. The chart in FIG. 7A illustrates the results obtained with the buds at the N3.
In a second stage, a first half of the treated mutant plants rms1 are decapitated just above the node 3, nine days after the treatment, the second half is left intact. The buds and/or ramifications at node 3 of the treated plants at 0 nM (which have not been repressed) are cut.
The bud size is measured seven days after the decapitation. […]

[6] = system: mutants rms1 (line M3T-988 from WT Térèse); experiment: Injection into the stem above node N3, size of bud at N5 (long-distance, dose-response); assay type: in vivo, pea; details: rms1 M3T-988; injected 1, 10, 100, 500 nM; eight days after the treatment; FIG. 6
Description: To this end, an experiment is carried out on mutants rms1 (line M3T-988 from WT Térèse) obtained in the same manner as for the mutants used in the preceding experiments.
The plants are treated by injecting the solution into the stem above the node N3. More precisely, a cotton thread is introduced into the plant stem with the help of needle and is dipped into the solution to be tested. The GR24 solution used (0 nM, 1 nM, 10 nM, 100 nM and 500 nM) were prepared by diluting in water GR24 solutions kept in acetone at different concentrations so that they have the same volume of acetone (10 μl of acetone in 20 ml of water).
as §1
The “untreated” plants correspond to control plants the ramifications N1 and N2 of which have been cut, but which have not received any injection.
The size of the buds at the node situated a distance above the injection zone (N5) is measured eight days after the treatment.

[7] = system: wild pea (line WT Térèse) and mutant pea (line M3T-988 ccd8/rms1 from WT Térèse); experiment: Application through the roots in hydroponic solution, internodal length and ramification length; assay type: in vivo
Description: To this end, an experiment is carried out in a hydroponic solution in order to bring GR24 into the hydroponic solution through the roots.
In this experiment, wild pea seeds (line WT Térèse) and mutant pea seeds (line M3T-988 ccd8/rms1 from WT Térèse) are first sowed in sand. Eight days later, the resulting plants are brought into the hydroponic system in which the roots are dipped in the nutritive solution. Four days later, a GR24 solution (diastereo isomer no 1) is added to 1 μM in the 47 liters of nutritive solution (4.7 ml GR24 at 10 mM). In this experiment, the plants reach the stage with 3-4 nodes.
Then, the cotyledonal ramifications are removed. The ramifications at the nodes N1 and N2 are kept.
The observation is carried out seven days later after addition of GR24 in the solution.
FIG. 10 represents the internodal length measured 19 days later after the germination on treated and untreated wild plants on one hand and treated and untreated mutant plants on the other hand.
FIG. 11 represents the ramification length (ramifications 3 at node N4) measured 19 days later on treated and untreated wild plants on one hand and treated and untreated mutant plants on the other hand. The ramifications at nodes N1 and N2 have already started at the time of the addition of GR24.

wild peas WT Térèse = experiment: Local application onto buds at node 2 of wild pea; assay type: in vivo; details: 500 nM, 10 μl per bud, eight days after the treatment, FIG. 4
Description: To this end, a third experiment is carried out on wild peas WT Térèse. The plants used are obtained in a identical manner as for the plants used in the first experiment.
The treatment is carried out 10 days after the seedling (stage with 4 to 5 leaves).
A solution containing synthetic strigolactone GR24 at 0 nM and 500 nM (4% PEG, 10% ethanol) is applied with the help of a micropipette onto the buds at the node 2 (N2), at the rate of 10 μl per bud.
The buds and/or ramifications at the first plant node N1 are cut at the time of the treatment.
The bud size at the node N2 is measured eight days after the treatment, the results being plotted in the chart in FIG. 4.

Row | Compound | bud growth at node N4, comparison of effects [1] | bud growth at N4 [2] | bud growth at N4 [3] | bud size at the node N3, sensitivity of buds of different ages [4] | bud size at N3 after decapitation of plants with buds first inhibited [5] | concentration from which injection above N3 represses the growth of the bud at N5 [6] [nM] | internodal length, from internode N4-N5 ([7]; 1 μM in hydroponic solution through the roots, wild and rms1 mutant, 19 days after germination, FIG. 10) | ramification length / bud start ([7]; 1 μM in hydroponic solution through the roots, wild and rms1 mutant, measured 19 days later, FIG. 11) | internodal length, internodes N1-N2, N2-N3 and N3-N4 ([7]; 1 μM in hydroponic solution, internodes already developed before addition, FIG. 10) | bud size at the node N2 (wild peas WT Térèse)
1 | O=C1OC2c3ccccc3CC2/C1=C\O (stereo not drawn) [ABC] | less efficient than GR24 and sorgolactone |  |  |  |  |  |  |  |  | 
2 | CC1=CC(O/C=C2/C(=O)OC3c4ccccc4CC23)OC1=O (stereo not drawn) [GR24] | comparable effects | not repressed in a significant manner | strongly repressed; also recorded: inhibit the growth of said treated buds | all sensitive to the treatment | able to start again when the plant is decapitated | ≥ 10 | has an effect only from the internode N4-N5 | induces a reduction of the ramification length | has no action | has also an action on the growth of the buds
3 | CC1=C[C@H](O/C=C2/C(=O)O[C@@H]3C4=C(CCC[C@@H]4C)C[C@H]23)OC1=O [sorgolactone, Sorgolactone] | comparable effects |  |  |  |  |  |  |  |  | 
